Among the data in patent US7273863B1, “Benzophenones as inhibitors of reverse transcriptase” (SmithKline Beecham Corporation, priority 1999, dated 2007) are IC50 values, retold here.

One experiment deals with WTRVA. Description: HeLa cell assay (HIV-LTR β-galactosidase reporter). Format: cell-based, HIV-1. Conditions: Human immunodeficiency virus 1, Virus Type WTRVA, read-out: IC50 (nM) Range. Here is the method:
The HeLa cell assay was performed according to a modification of Kimpton J. and Emerman M., Detection of replication-competent and pseudotyped human immunodeficiency virus with a sensitive cell line on the basis of activation of an integrated β-galactosidase gene, J. Virol. 66:2232-2239 (1992), in which HIV-1 infection is detected by the activation of an HIV-LTR driven β-galactosidase reporter that is integrated into the genome of a CD4^+ HeLa cell line. Quantitation of β-galactosidase is achieved by measuring the activation of a chemiluminescent substrate (Tropix). The concentration of each compound required to inhibit 50% (IC50) of the HIV-1 induced β-galactosidase signal, relative to untreated controls, was determined for each isogenic, recombinant virus.
HeLa-CD4-LTR-β-gal cells were obtained from the NIH AIDS Research and Reference Reagent Program. Cells were propagated in DMEM containing 10% fetal bovine serum, 0.2 mg/ml geneticin and 0.1 mg/ml hygromycin B. Cells were routinely split by trypsinization when confluency reached 80% (approximately every 2 to 3 days).
DNA encoding the HIV-1 reverse transcriptase was subcloned from a M13 phage into a general shuttle vector, pBCSK+, as a ˜1.65 kbp EcoRI/HindIII ended DNA fragment. The HIV DNA insert of the resulting plasmid, pRT2, was completely sequenced on both strands prior to use in site directed mutagenesis experiments. Specific amino acid replacements were made using Stratagene Quick Change reagents and mutagenic oligonucleotides from Oligos. Following mutagenesis, the entire mutant RT coding sequence was verified by sequencing both DNA strands.
Mutant HIV-1 strains were isolated by a modified Recombinant Virus Assay (Kellam P. and Larder B., Recombinant virus assay: a rapid, phenotypic assay for assessment of drug susceptibility of human immunodeficiency virus type 1 isolates, Antimicrobial Agents and Chemotherapy, 38:23-30, 1994). 1×10^7 Jurkat T-cells (maintained in RPMI containing 10% fetal bovine serum, split 1:5 every 5 to 6 days) were co-transfected with EcoRI/HindIII digested mutant RT plasmid and Bst EII-digested HIV-1HXB2ΔRT DNA in the presence of DMRIE-C transfection reagent (Gibco) according to supplier's recommended protocol. Each mutant RT coding sequence was crossed into the RT-deleted HIV-1 viral DNA backbone by in vivo homologous recombination. Transfected cell cultures were expanded and monitored until syncitia formation and CPE were extensive. Virus was harvested by clear spin of the culture supernatants and frozen at −80 C as primary stock. Recombinant progeny virus was sequenced in the RT region to confirm the mutant genotype. Virus stocks were further expanded by infection of Jurkat cells, harvested and stored as frozen aliquots. Stocks were titered in HeLa MAGI cells for assay.
The HIV-1HXB2 mutants were titered in the HeLa MAGI assay system to determine the relative light units (RLU) per ml, a measure of infectivity relevant for this assay system. Virus stocks were diluted in a 2-fold series into DMEM containing 10% fetal bovine serum plus 20 ug/ml DEAE-dextran and assayed as described in the Experimental Protocol section, below.
96-well microtiter plate(s) (Costar #3598) were seeded with 3×10^3 HeLa-CD4-LTR-β-gal in 100 μl DMEM containing 10% fetal bovine serum. Plates were placed in a 37° C., 5% CO2 humidified incubator overnight. The following day, mutant virus stocks were thawed in a room temperature water bath and diluted into DMEM containing 10% fetal bovine serum and 20 μg/ml DEAE-dextran to achieve an input of 1500 to 2000 RLU/ml. All media was removed with an 8 channel manifold aspirator and 35 μl (50 to 70 total RLUs) of diluted virus was added to each well for virus adsorption. Plates were placed in a 37° C., 5% CO2 humidified incubator for 1.5 to 2 hours.
Compound titration plates were prepared at 1.35× final concentration during the virus adsorption period. […]

For another experiment, the system named is HIV-1 (strain IIIB). Description: MT4 cell assay, antiviral HIV activity (propidium iodide). Conditions: Human immunodeficiency virus 1, IIIB; Virus Type HIV-1; Assay MT4; read-out: IC50 (nM) Range. The experiment is classed as cell-based. The procedure:
Antiviral HIV activity and compound-induced cytotoxicity were measured in parallel by means of a propidium iodide based procedure in the human T-cell lymphotropic virus transformed cell line MT4. Aliquots of the test compounds were serially diluted in medium (RPMI 1640, 10% fetal calf serum (FCS), and gentamycin) in 96-well plates (Costar 3598) using a Cetus Pro/Pette. Exponentially growing MT4 cells were harvested and centrifuged at 1000 rpm for 10 min in a Jouan centrifuge (model CR 4 12). Cell pellets were resuspended in fresh medium (RPMI 1640, 20% FCS, 20% IL-2, and gentamycin) to a density of 5×10^5 cells/ml. Cell aliquots were infected by the addition of HIV-1 (strain IIIB) diluted to give a viral multiplicity of infection of 100×TCID50. A similar cell aliquot was diluted with medium to provide a mock-infected control. Cell infection was allowed to proceed for 1 hr at 37° C. in a tissue culture incubator with humidified 5% CO2 atmosphere. After the 1 hr incubation the virus/cell suspensions were diluted 6-fold with fresh medium, and 125 μl of the cell suspension was added to each well of the plate containing pre-diluted compound. Plates were then placed in a tissue culture incubator with humidified 5% CO2 for 5 days. At the end of the incubation period, 27 μl of 5% Nonidet-40 was added to each well of the incubation plate. After thorough mixing with a Costar multitip pipetter, 60 μl of the mixture was transferred to filter-bottomed 96-well plates. The plates were analyzed in an automated assay instrument (Screen Machine, Idexx Laboratories). The control and standard used was 3′-azido-3′-deoxythymidine tested over a concentration range of 0.01 to 1 μM in every assay. […] The assay-makes use of a propidium iodide dye to estimate the DNA content of each well.
The antiviral effect of a test compound is reported as an IC50, i.e. the inhibitory concentration that would produce a 50% decrease in the HIV-induced cytopathic effect. This effect is measured by the amount of test compound required to restore 50% of the cell growth of HIV-infected MT4 cells, compared to uninfected MT4 cell controls. IC50 was calculated by RoboSage, Automated Curve Fitting Program, version 5.00, 10 Jul. 1995.
For each assay plate, the results (relative fluorescence units, rfU) of wells containing uninfected cells or infected cells with no compound were averaged, respectively. For measurements of compound-induced cytotoxicty, results from wells containing various compound concentrations and uninfected cells were compared to the average of uninfected cells without compound treatment. Percent of cells remaining is determined by the following formula: Percent of cells remaining=(compound−treated uninfected cells, rfU/untreated uninfected cells)×100.
A level of percent of cells remaining of 79% or less indicates a significant level of direct compound-induced cytotoxicity for the compound at that concentration. When this condition occurs the results from the compound-treated infected wells at this concentration are not included in the calculation of IC50.
For measurements of compound antiviral activity, results from wells containing various compound concentrations and infected cells are compared to the average of uninfected and infected cells without compound treatment. Percent inhibition of virus is determined by the following formula: Percent inhibition of virus=(1−((ave. untreated uninfected cells−treated infected cells)/(ave. untreated uninfected cells−ave. untreated infected cells)))×100

Molecules are shown by their SMILES. Bounds are passed on as bounds.

Broadly, the IC50 is the midpoint of a concentration-inhibition curve. Consider `Cc1cc(S(N)(=O)=O)ccc1NC(=O)COc1ccc(Cl)cc1C(=O)c1cc(F)cc(F)c1` [Compound 62], for which the IC50 with WTRVA and with HIV-1 (strain IIIB) was below 10 nM each time. `Cc1cc2nc[nH]c2cc1NC(=O)COc1ccc(Cl)cc1C(=O)c1cc(F)cc(C(F)(F)F)c1` [Compound 239]: the IC50 in the experiment with WTRVA and with HIV-1 (strain IIIB) was below 10 nM each time. Turning to `Cc1cc(S(N)(=O)=O)ccc1NC(=O)COc1ccc(Cl)cc1C(=O)c1cc(F)cc(C#N)c1` [Compound 491], the IC50 with WTRVA and in the experiment on HIV-1 (strain IIIB) was below 10 nM in each case. Turning to `CCc1cc(C#N)cc(C(=O)c2cc(Cl)ccc2OCC(=O)Nc2ccc(S(N)(=O)=O)cc2C)c1` [Compound 498], the IC50 in the experiment on WTRVA and with HIV-1 (strain IIIB) was below 10 nM in each case. Consider `Cc1cc(S(N)(=O)=O)ccc1NC(=O)COc1ccc(Cl)cc1C(=O)c1cccc(C#N)n1` [Compound 637], for which the IC50 in the experiment on WTRVA and with HIV-1 (strain IIIB) was below 10 nM throughout. `Cc1cc(C)cc(C(=O)c2cc(Cl)ccc2OCC(=O)Nc2ccc(S(N)(=O)=O)cc2C)c1` [Compound 478]: the IC50 with WTRVA and with HIV-1 (strain IIIB) was below 10 nM each time. Turning to `Cc1cc(C#N)cc(C(=O)c2cc(Cl)ccc2OCC(=O)Nc2ccc(OCCCN3CC=CC3)cc2C)c1` [Compound 593], the IC50 in the experiment on WTRVA and in the experiment with HIV-1 (strain IIIB) was below 10 nM throughout.

In the case of `Cc1cc(S(N)(=O)=O)ccc1NC(=O)COc1ccc(Cl)cc1C(=O)c1cc(F)cc(C(F)(F)F)c1` [Compound 78], the IC50 in the experiment with WTRVA and in the experiment with HIV-1 (strain IIIB) was below 10 nM in each case. On to `Cc1cc(C#N)cc(C(=O)c2cc(Cl)ccc2OCC(=O)Nc2cnc(S(N)(=O)=O)cc2C)c1` [Compound 587], for which the IC50 in the experiment with WTRVA and with HIV-1 (strain IIIB) was below 10 nM each time. On to `Cc1cc2cn[nH]c2cc1NC(=O)COc1ccc(Cl)cc1C(=O)c1cccc(C#N)c1` [Compound 453], for which the IC50 in the experiment on WTRVA and in the experiment with HIV-1 (strain IIIB) was below 10 nM each time. Take `Cc1cc(S(N)(=O)=O)ccc1NC(=O)COc1ccc(Cl)cc1C(=O)c1cccc(C#N)c1` [Compound 448]: the IC50 in the experiment on HIV-1 (strain IIIB) is below 10 nM. On to `Cc1cc(C#N)cc(C(=O)c2cc(Cl)ccc2OCC(=O)Nc2ccc(S(N)(=O)=O)nc2C)c1` [Compound 503], for which the concentration for half-maximal inhibition (IC50) in the experiment on WTRVA and with HIV-1 (strain IIIB) was below 10 nM in each case.

For `Cc1cc(C#N)cc(C(=O)c2cc(Cl)ccc2OCC(=O)Nc2ccc(S(N)(=O)=O)cc2C)c1` [Compound 564], the IC50 with WTRVA and with HIV-1 (strain IIIB) was below 10 nM each time.

As for `Cc1cc(OCCCS(N)(=O)=O)ccc1NC(=O)COc1ccc(Cl)cc1C(=O)c1cc(F)cc(C(F)(F)F)c1` [Compound 257], the IC50 with WTRVA and in the experiment on HIV-1 (strain IIIB) was below 10 nM each time. Take `Cc1cc(S(N)(=O)=O)ccc1NC(=O)COc1ccc(Cl)cc1C(=O)c1cc(Cl)cc(C#N)c1` [Compound 475]: the IC50 in the experiment on WTRVA and in the experiment with HIV-1 (strain IIIB) was below 10 nM in each case.
